Reference: PMC5431883, “Enhancing Specific Disruption of Intracellular Protein Complexes by Hydrocarbon Stapled Peptides Using Lipid Based Delivery” (Scientific Reports, 2017)
Positions of bridges follow the written chain, without caps; N, C: chain ends. Non-standard residues stand in square brackets, D forms with d. Residues, ends and D or L forms follow the SMILES beside them. *: point of attachment. Biotin = O=C1N[C@H]2[C@H](CS[C@H]2CCCCC(=O)*)N1; R8 = C=CCCCCCC[C@@](C)(N)C(=O)O; Cba = N[C@@H](CC1CCC1)C(=O)O; S5 = C=CCCC[C@](C)(N)C(=O)O; Ahx = NCCCCCC(=O)O

Target: T1, Mdm2 (1-125) (Homo sapiens, UniProt Q00987)
T1 construct: Purified MDM2 (1-125) protein was titrated against 50 nM carboxyfluorescein (FAM)-labeled; GST (N, cleaved yes); made in house; host or cells: E. coli BL21 DE3 (pGEX-6P-1)
Experiment: Mdm2 competitive fluorescence anisotropy assay (FAM-labeled 12/1 peptide displacement); note: 250 nM MDM2
Format: binding
Details: read-out: Kd (apparent dissociation constant, competitive fluorescence anisotropy)
Procedure: analyzed with SDS page gel and concentrated using a Centricon (3.5 kDa MWCO) concentrator, Millipore. Mdm2 protein samples were then dialyzed into a buffer solution containing 20mM Bis-Tris, pH 6.5, 0.05M NaCl with 1mM DTT and loaded onto a monoS column pre-equilibrated in buffer A (20mM Bis-Tris, pH 6.5, 1mM DTT). The column was then washed in 6 column volumes of buffer A and bound protein was eluted with a linear gradient of 1M NaCL over 25 column volumes. Protein fractions were analyzed with SDS page gel and concentrated using a Centricon (3.5 kDa MWCO) concentrator, Millipore.
Protein concentration was determined using A280 using an extinction coefficients […]
Mdm2 Competitive Fluorescence Anisotropy Assay and Kd Determination […]
Dissociation constants for titration of MDM2 against […]
equation shown below:25,26
[P] is the protein concentration (MDM2), [L] is the labeled peptide concentration, r is the anisotropy measured, r0 is the anisotropy of the free peptide, rb is the anisotropy of the MDM2– FAM-labeled peptide complex, Kd is the dissociation constant, [L]t is the total FAM labeled
(1 picture or pasted object on this page, not shown here) […]
peptide concentration, and [P]t is the total MDM2 concentration. […]
respective competing ligands in subsequent competition assays.
Apparent Kd values were determined for a variety of molecules via competitive fluorescence anisotropy experiments. Titrations were carried out with the concentration of MDM2 held constant […]
The competing molecules were then titrated against the complex of the FAM-labeled peptide and protein. Apparent Kd values were determined by fitting the experimental data to the equations shown below:26,27 […]
[L]st and [L]t denote labeled ligand and total unlabeled ligand input concentrations, respectively.
Kd2 is the dissociation constant of the interaction between the unlabeled ligand and the protein. In […]
all competitive types of experiments, it is assumed that [P]t > [L]st, otherwise considerable amounts of free labeled ligand would always be present and would interfere with measurements. Kd1 is the […]
experimentally determined as described in the previous paragraph. The FAM-labeled peptide was dissolved in dimethyl sulfoxide (DMSO) at 1 mM and diluted into experimental buffer. Readings were carried out with an Envision Multilabel Reader (PerkinElmer). Experiments were carried out […]
Tween 20 buffer. All titrations were carried out in triplicate. Curve-fitting was carried out using […]
Negative control titrations of the ligands under investigation were also carried out with the fluorescently labeled peptide (in the absence of MDM2) to ensure no interactions were occurring between the ligands and FAM-labeled peptide. […]
which would otherwise indicate an unintended interaction between the ligand and the FAM-labeled peptide to be displaced from the MDM2 binding site. […]

T1 sequence (Q00987 1-125): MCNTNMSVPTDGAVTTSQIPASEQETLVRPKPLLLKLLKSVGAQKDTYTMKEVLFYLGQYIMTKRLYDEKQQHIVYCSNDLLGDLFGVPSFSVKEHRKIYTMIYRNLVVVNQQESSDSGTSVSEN

SMILES | Kd
CC(=O)N[C@@H](CCCCN)C(=O)N[C@@H](CCCCN)C(=O)NCCCCCC(=O)N[C@H](C(=O)N[C@@H](CO)C(=O)N[C@@H](Cc1ccccc1)C(=O)N[C@]1(C)CCCCCCC=CCCC[C@@](C)(C(=O)N[C@@H](CCC(=O)O)C(=O)N[C@@H](CC(N)=O)C(=O)N[C@@H](Cc2ccccc2)C(N)=O)NC(=O)[C@H](CC2CCC2)NC(=O)[C@H](CC(C)C)NC(=O)[C@H](C)NC(=O)[C@H](Cc2c[nH]c3ccccc23)NC(=O)[C@H](Cc2ccc(O)cc2)NC(=O)[C@H](CCC(=O)O)NC1=O)[C@@H](C)O [VIP-124] (Ac-KK[Ahx]TSF[R8]EYWAL[Cba][S5]ENF-NH2; staple 7-14) | 2.7 ± 0.4 nM
CC(=O)N[C@@H](CCCCN)C(=O)N[C@@H](CCCCN)C(=O)N[C@@H](CO)C(=O)NCC(=O)N[C@@H](CO)C(=O)NCC(=O)N[C@H](C(=O)N[C@@H](CO)C(=O)N[C@@H](Cc1ccccc1)C(=O)N[C@]1(C)CCCCCCC=CCCC[C@@](C)(C(N)=O)NC(=O)[C@H](CC(C)C)NC(=O)[C@H](CC(C)C)NC(=O)[C@H](C)NC(=O)[C@H](Cc2c[nH]c3ccccc23)NC(=O)[C@H](Cc2ccc(O)cc2)NC(=O)[C@H](CCC(=O)O)NC1=O)[C@@H](C)O [VIP-151] (Ac-KKSGSGTSF[R8]EYWALL[S5]-NH2; staple 10-17) | 33.6 ± 5.6 nM
CC(=O)N[C@@H](Cc1c[nH]cn1)C(=O)N[C@@H](Cc1c[nH]cn1)C(=O)N[C@@H](Cc1c[nH]cn1)C(=O)NCCCCCC(=O)N[C@H](C(=O)N[C@@H](CO)C(=O)N[C@@H](Cc1ccccc1)C(=O)N[C@]1(C)CCCCCCC=CCCC[C@@](C)(C(=O)N[C@@H](CCC(=O)O)C(=O)N[C@@H](CC(N)=O)C(=O)N[C@@H](Cc2ccccc2)C(N)=O)NC(=O)[C@H](CC(C)C)NC(=O)[C@H](CC(C)C)NC(=O)[C@H](C)NC(=O)[C@H](Cc2c[nH]c3ccccc23)NC(=O)[C@H](Cc2ccc(O)cc2)NC(=O)[C@H](CCC(=O)O)NC1=O)[C@@H](C)O [VIP-81] (Ac-HHH[Ahx]TSF[R8]EYWALL[S5]ENF-NH2; staple 8-15) | 61.2 ± 6.5 nM
CC(C)C[C@@H]1NC(=O)[C@H](C)NC(=O)[C@H](Cc2c[nH]c3ccccc23)NC(=O)[C@H](Cc2ccc(O)cc2)NC(=O)[C@H](CCC(=O)O)NC(=O)[C@](C)(NC(=O)[C@H](Cc2ccccc2)NC(=O)[C@H](CO)NC(=O)[C@@H](NC(=O)CCCCCNC(=O)CCCC[C@@H]2SC[C@@H]3NC(=O)N[C@@H]32)[C@@H](C)O)CCCCCCC=CCCC[C@@](C)(C(N)=O)NC(=O)[C@H](CC2CCC2)NC1=O [VIP-68] ({Biotin-Ahx}-TSF[R8]EYWAL[Cba][S5]-NH2; staple 4-11) | 41.6 ± 1.7 nM
CC(=O)N[C@@H](CCCCN)C(=O)N[C@@H](CCCCN)C(=O)N[C@@H](CCCCN)C(=O)NCCCCCC(=O)N[C@H](C(=O)N[C@@H](CO)C(=O)N[C@@H](CC(C)C)C(=O)N[C@]1(C)CCCCCCC=CCCC[C@@](C)(C(=O)N[C@@H](CCC(=O)O)C(=O)N[C@@H](CC(N)=O)C(=O)N[C@@H](Cc2ccccc2)C(N)=O)NC(=O)[C@H](Cc2c[nH]c3ccccc23)NC(=O)[C@H](CC(C)C)NC(=O)[C@H](C)NC(=O)[C@H](Cc2ccccc2)NC(=O)[C@H](Cc2ccc(O)cc2)NC(=O)[C@H](CCC(=O)O)NC1=O)[C@@H](C)O [VIP-127 SCRAM] (Ac-KKK[Ahx]TSL[R8]EYFALW[S5]ENF-NH2; staple 8-15) | > 10000 nM
CC(=O)N[C@@H](CCCNC(=N)N)C(=O)N[C@@H](CCCNC(=N)N)C(=O)NCCCCCC(=O)N[C@H](C(=O)N[C@@H](CO)C(=O)N[C@@H](Cc1ccccc1)C(=O)N[C@]1(C)CCCCCCC=CCCC[C@@](C)(C(=O)N[C@@H](CCC(=O)O)C(=O)N[C@@H](CC(N)=O)C(=O)N[C@@H](Cc2ccccc2)C(N)=O)NC(=O)[C@H](CC(C)C)NC(=O)[C@H](CC(C)C)NC(=O)[C@H](C)NC(=O)[C@H](Cc2c[nH]c3ccccc23)NC(=O)[C@H](Cc2ccc(O)cc2)NC(=O)[C@H](CCC(=O)O)NC1=O)[C@@H](C)O [VIP-117] (Ac-RR[Ahx]TSF[R8]EYWALL[S5]ENF-NH2; staple 7-14) | 160 ± 14.6 nM
CC(C)C[C@@H]1NC(=O)[C@H](C)NC(=O)[C@H](Cc2c[nH]c3ccccc23)NC(=O)[C@H](Cc2ccc(O)cc2)NC(=O)[C@H](CCC(=O)O)NC(=O)[C@](C)(NC(=O)[C@H](Cc2ccccc2)NC(=O)[C@H](CO)NC(=O)[C@@H](NC(=O)CCCCCNC(=O)CCCC[C@@H]2SC[C@@H]3NC(=O)N[C@@H]32)[C@@H](C)O)CCCCCCC=CCCC[C@@](C)(C(=O)N[C@@H](CCC(=O)O)C(=O)N[C@@H](CC(N)=O)C(=O)N[C@@H](Cc2ccc(O)cc2)C(N)=O)NC(=O)[C@H](CC(C)C)NC1=O [VIP-87] | 46.2 ± 3.3 nM
CC(=O)N[C@@H](CCCNC(=N)N)C(=O)N[C@@H](CCCNC(=N)N)C(=O)N[C@@H](CCCNC(=N)N)C(=O)NCCCCCC(=O)N[C@H](C(=O)N[C@@H](CO)C(=O)N[C@@H](CC(C)C)C(=O)N[C@]1(C)CCCCCCC=CCCC[C@@](C)(C(=O)N[C@@H](CCC(=O)O)C(=O)N[C@@H](CC(N)=O)C(=O)N[C@@H](Cc2ccccc2)C(N)=O)NC(=O)[C@H](Cc2c[nH]c3ccccc23)NC(=O)[C@H](CC(C)C)NC(=O)[C@H](C)NC(=O)[C@H](Cc2ccccc2)NC(=O)[C@H](Cc2ccc(O)cc2)NC(=O)[C@H](CCC(=O)O)NC1=O)[C@@H](C)O [VIP-128 SCRAM] (Ac-RRR[Ahx]TSL[R8]EYFALW[S5]ENF-NH2; staple 8-15) | > 10000 nM
CC(=O)N[C@@H](CC(C)C)C(=O)N[C@H](C(=O)N[C@@H](Cc1ccccc1)C(=O)N[C@]1(C)CCCCCCC=CCCC[C@@](C)(C(=O)N[C@@H](CCC(=O)O)C(=O)N[C@@H](CC(N)=O)C(=O)N[C@@H](Cc2ccccc2)C(N)=O)NC(=O)[C@H](CC(C)C)NC(=O)[C@H](CC(C)C)NC(=O)[C@H](C)NC(=O)[C@H](Cc2c[nH]c3ccccc23)NC(=O)[C@H](Cc2ccc(O)cc2)NC(=O)[C@H](CCC(=O)O)NC1=O)[C@@H](C)O [VIP-120] (Ac-LTF[R8]EYWALL[S5]ENF-NH2; staple 4-11) | 1.8 ± 0.7 nM
CC(=O)N[C@@H](CCCCN)C(=O)N[C@@H](CCCCN)C(=O)NCCCCCC(=O)N[C@H](C(=O)N[C@@H](CO)C(=O)N[C@@H](Cc1ccccc1)C(=O)N[C@]1(C)CCCCCCC=CCCC[C@@](C)(C(=O)N[C@@H](CCC(=O)O)C(=O)N[C@@H](CC(N)=O)C(=O)N[C@@H](Cc2ccc(O)cc2)C(N)=O)NC(=O)[C@H](CC(C)C)NC(=O)[C@H](CC(C)C)NC(=O)[C@H](C)NC(=O)[C@H](Cc2c[nH]c3ccccc23)NC(=O)[C@H](Cc2ccc(O)cc2)NC(=O)[C@H](CCC(=O)O)NC1=O)[C@@H](C)O [VIP-86] (Ac-KK[Ahx]TSF[R8]EYWALL[S5]ENY-NH2; staple 7-14) | 23.5 ± 1.4 nM
CC(=O)N[C@@H](CCCCN)C(=O)N[C@@H](CC(C)C)C(=O)N[C@@H](C)C(=O)N[C@@H](CCCCN)C(=O)NCCCCCC(=O)N[C@H](C(=O)N[C@@H](CO)C(=O)N[C@@H](Cc1ccccc1)C(=O)N[C@]1(C)CCCCCCC=CCCC[C@@](C)(C(N)=O)NC(=O)[C@H](CC(C)C)NC(=O)[C@H](CC(C)C)NC(=O)[C@H](C)NC(=O)[C@H](Cc2c[nH]c3ccccc23)NC(=O)[C@H](Cc2ccc(O)cc2)NC(=O)[C@H](CCC(=O)O)NC1=O)[C@@H](C)O [VIP-122] | 3.7 ± 0.9 nM
